Laboratory results from US20230118467A1, “COSMETIC OR PHARMACEUTICAL USE OF AVENANTHRAMIDE L” (priority 2020, published 2023).
Where “and” joins values, the source holds several entries; their conditions need not be identical. Equal entries are not always repeated. Where two headings read alike, the source gives them in different places.

Key:
BLVRB = test: Gene expression in neonatal human epidermal keratinocytes (real-time PCR): BLVRB; type: cell-based; details: 100 μM, 24 hours, nHEK, RQ ≥2.0 relevant
Procedure: (§1) Neonatal human epidermal keratinocytes (nHEK) were cultivated in an EpiLife® medium (Gibco) including an HKGS kit (Gibco) with 5% C02 at 37° C. in accordance with the supplier's instructions.
(§2) The cells were treated for 24 hours, with the test compounds dissolved in DMSO and DMSO alone as the vehicle control. Genomic target expression levels in treated cells were measured using a quantitative Real-Time PCR comparison to vehicle control treatment.
(§3) RNA was isolated using Qiagen's RNeasy® Mini Kit. The total RNA concentrations were measured using Eppendorf's pCuvetteG 1.0 and BioPhotometer, by measuring the absorption at 260 nm. Purity control values such as E260/280 and E260/230 were calculated simultaneously. Reverse transcription was performed using the high-capacity RNA-to-cDNA kit of Applied Biosystems, in accordance with the supplier's instructions. Samples were treated in Biometra's PCR Thermocycler.
(§4) For fast real-time PCR, the cDNA was diluted with RNase-free water, and the TaqMan™ Fast Universal PCR Master Mix of Applied Biosystems was used.
(§5) Quantitative real-time PCR was performed using the StepOnePlus fast real-time PCR instrument by Applied Biosystems. Analysis was conducted using the StepOne software and 2^−ΔΔct method (normalised to endogenous control […] expression).
(§6) For upregulations, RQ values ≥2.0 are considered to be relevant. […]

HSPB2 (=HSP27) = test: Gene expression in neonatal human epidermal keratinocytes (real-time PCR): HSPB2; type: cell-based; details: 100 μM, 24 hours, nHEK, vs DMSO vehicle; RQ ≥2.0 relevant
Procedure: as §1, §2, §3, §4, §5
(§7) For upregulations, RQ values ≥2.0 are considered to be relevant.

[1] = Radical-scavenging activity (ABTS assay); type: biochemical; details: absorption at 734 nm
Text: The ABTS assay measures the relative ability of antioxidants to scavenge the ABTS radical generated in aqueous phase, as compared with a Trolox (water-soluble vitamin E analogue) standard. The green-blue stable radical cationic chromophore 2,2′-azino-bis(3-ethylbenzothiazoline-6-sulphonate) (ABTS^•+) is generated by reaction with the ABTS salt using a strong oxidising agent (for example potassium permanganate or potassium persulphate) and has absorption maxima at 414, 645, 734 and 815 nm. The reduction of the blue-green ABTS radical by hydrogen-donating antioxidants is measured by the suppression of its characteristic long wave absorption spectrum.
With the aid of the ABTS assay, the antioxidative capacity of Avn L and Avn A were evaluated and compared.
2,2′-azino-bis-(3-ethylbenzothiazoline-6-sulphonic acid) (ABTS) was transformed into the blue-green radical cation ABTS^•+ using potassium persulphate. Through the addition of [6]-paradol and alpha-tocopherol, the radical cations were reduced and discoloration was observed, as determined photometrically by absorption at 734 nm. Inhibition of radical formation in the test substance is calculated by the following formula: […]
where • Atest substance is the absorption in the wells with the test substance including [6]-paradol and alpha-tocopherol • Acontrol is the absorption in the wells with no test substance.
Values for IC50 (the concentration at which radical formation is inhibited by 50%) were calculated from the inhibition of radical formation [%] in a series of dilutions of tested samples.

tachykinin NK1 receptor = molecular target: T1, tachykinin NK1 receptor (Homo sapiens, UniProt P25103); test: NK1 receptor inhibition study, radioligand binding assay ([3H] Substance P); details: for inhibition at 0.1 ppm / inhibition at 1 ppm / inhibition at 10 ppm / inhibition at 100 ppm / inhibition at 125 ppm: read-out: Percent inhibition of specific binding to the tachykinin NK1 receptor; for inhibition at 125 ppm: test concentration 125 ppm (Example 7)
T1 construct: expressed in transfected cells; host or cells: CHO cells
T1 sequence (P25103 whole entry): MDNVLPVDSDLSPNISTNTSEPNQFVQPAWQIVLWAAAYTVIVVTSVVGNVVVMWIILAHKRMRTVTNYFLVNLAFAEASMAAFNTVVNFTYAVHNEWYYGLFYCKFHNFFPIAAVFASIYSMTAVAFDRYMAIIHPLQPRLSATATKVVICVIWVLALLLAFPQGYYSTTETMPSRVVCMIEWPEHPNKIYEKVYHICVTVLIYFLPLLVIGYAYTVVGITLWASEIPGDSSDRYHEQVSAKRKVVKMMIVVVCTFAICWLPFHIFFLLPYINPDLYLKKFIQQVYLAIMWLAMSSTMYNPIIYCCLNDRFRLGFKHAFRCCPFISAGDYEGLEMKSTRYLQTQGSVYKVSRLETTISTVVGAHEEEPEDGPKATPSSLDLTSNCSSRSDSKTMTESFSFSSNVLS
Procedure: The inhibition activity of avenanthramide L versus dihydroavenanthramide D and the structurally related avenanthramides A and D was evaluated in a radioligand binding assay.
The method employed in this study was adapted from the scientific literature so as to maximise reliability and reproducibility. Reference compound L-703,606 was run as an integral part of each experiment, to ensure the validity of the results obtained. The assay was performed under the conditions described in the following respective method.
Source: Human recombinant CHO cells
Incubation time/temperature: 90 minutes at 4° C. Incubation buffer: 20 mM HEPES, pH 7.4, • 1 mM MnCl2 • 0.1% BSA
Ligand: 0.80 nM [3H] Substance P
Non-specific ligand: 10.0 μM L-703,606 oxalate salt (CAS 144425-84-3) Specific binding: 90% Significance criteria: ≥50% of max. stimulation or inhibition Bmax: 1.70 pmol/mg protein
In another experiment, the inhibitory activity of a combination of avenanthramide L and another avenanthramide was evaluated in comparison to both substances alone in the radioligand binding assay as described in Example 1 to investigate a potential synergism.

CD44 = test: Gene expression in neonatal human epidermal keratinocytes (real-time PCR): CD44; type: cell-based; details: 100 μM, 24 hours, nHEK, RQ ≥2.0 relevant
Procedure: as §1, §2, §3, §4, §5, §6

[2] = Oxidative stability (Oxipress) of avenanthramides in solution; details: for Content after treatment / Degradation in %: 5 bars of oxygen at 70° C. for 24 hours; for Content before treatment: HPLC; for ΔE (colour difference, CIELAB): before vs after 5 bars of oxygen at 70° C. for 24 hours
Procedure: (§8) Stability under exposure to oxygen and temperature was evaluated for dissolved pure avenanthramides in aqueous ethanolic solution, both alone and as an avenanthramide mixture.
(§9) Avenantharmide mixtures used were DragoCalm® (Symrise; INCI Name: Aqua, Glycerin, Avena Sativa Kernel Extract) or DragoCalm® SP (Symrise; INCI Name: Aqua, Glycerin, Pentylene Glycol, Avena Sativa Kernel Extract).
(§10) The liquids were either exposed to 5 bars of oxygen at 70° C. for 24 hours using the Oxipress device or stored for 2 and 4 weeks at 40° C. in a heating cabinet.
(§11) The content of Avns was determined by HPLC, and the colour was measured by colorimetry (Hach Lange Lico 690 instrument) before and after treatment.
(§12) Color can be determined using the CIELAB color model which is based on an opponent color system. CIELAB indicates the color by values on three axes: L*, a*, and b* with dimension L for lightness and a* and b* for the color-opponent dimensions red/green and yellow/blue, based on nonlinearly compressed coordinates. The L* axis extends from black (0) to white (100), the a* axis from green (−a) to red (+a) and the b* axis from blue (−b) to yellow (+b).
(§13) The difference of 2 colors ΔE can be calculated using the following equation:
(§14) ΔEp,v=√{square root over ((Lp*−Lv*)^2+(ap*−av*)^2+bp*−bv*)^2)}
(§15) A difference of ΔE of 0.5-1 can be visually observed by a trained evaluator by naked eye. A difference of 2-4 can be observed visually also by a non-trained evaluator.

[3] = test system: Primary human dermal fibroblasts; test: Cellular antioxidant activity (DCF-DA assay); type: cell-based; details: 24 h incubation, prooxidant challenge 1 mM 1 h; for inhibition at 500 µM: Homo sapiens, Fibroblast, read-out: Inhibition of oxidation
Procedure: The DCF-DA assay is a fluorometric microplate assay for the detection of oxidative stress by detecting oxidation of 2′,7′-dichlorofluorescein-diacetate (DCF-DA) into the highly fluorescent compound 2′,7′-dichlorofluorescein (DCF) due to the presence of reactive oxygen species (ROS). The DCF-DA assay allows the cellular antioxidant activity of a substance to be determined.
Primary human dermal fibroblasts were seeded in a 96-well microtiter plate at a concentration of 0.5×10^4 cells/well. Cultivation took place at 37° C. and 5% CO2 in DMEM, enriched with 10% foetal calf serum. Confluence was supposed to be around 70% at the time, the incubation with the test substances began. The test substances were applied to the cells at a concentration of 500 μM. After 24 h of incubation, 100 μL H2DCF-DA-solution (10 μM) incl. DAPI (1:1000) was added to all samples (excluded the background-control) and incubated for one hour to deesterify the H2DCF-DA by cellular esterases. The resulting H2DCF was thereby trapped inside the cell. After the incubation, the cells were washed and the prooxidant challenge was set (1 mM, 1 h). The resulting fluorescence was read at λex 504 nm; λem 524 nm. An increased level of ROS (reactive oxygen species) led to an increased amount of fluorescence.
The inhibition of the oxidation in the presence of test substances was calculated according to the following equation: […]
The abbreviations have the following meanings: • RFU test substance: Relative fluorescence units of the wells with test substance and with cells • RFU control: Relative fluorescence units of the wells without test substance, but with cells • RFU without cells: Relative fluorescence units of the wells without test substance and without cells (blank)

[4] = Temperature stability at 40° C. of avenanthramide mixture in solution; type: physicochemical; details: for Content after 2 weeks at 40° C. / Content after 4 weeks at 40° C. / Content before treatment: Avn in mixture DragoCalm (glycerin/water); for Content before treatment: HPLC; for Degradation in %: Avn in mixture DragoCalm
Text: with p=sample 1 and v=sample 2

HPRT1 (housekeeping) = test: Gene expression in neonatal human epidermal keratinocytes (real-time PCR): HPRT1; type: cell-based; details: 100 μM, 24 hours
Procedure: as §1, §2, §3, §4, §5, §6

CRYAB = test: Gene expression in neonatal human epidermal keratinocytes (real-time PCR): CRYAB; type: cell-based; details: 100 μM, 24 hours, nHEK, vs DMSO vehicle, RQ ≥2.0 relevant
Procedure: as §1, §2, §3, §4, §5, §7

[5] = 24 h
Procedure: as §8, §9, §10, §11, §12, §13, §14, §15

HSP90AA1 = test: Gene expression in neonatal human epidermal keratinocytes (real-time PCR): HSP90AA1; type: cell-based; details: 100 μM, 24 hours, nHEK, vs DMSO vehicle, RQ ≥2.0 relevant
Procedure: as §1, §2, §3, §4, §5, §7

HSP90AB1 = test: Gene expression in neonatal human epidermal keratinocytes (real-time PCR): HSP90AB1; type: cell-based; details: 100 μM, 24 hours, nHEK, vs DMSO vehicle, RQ ≥2.0 relevant
Procedure: as §1, §2, §3, §4, §5, §7

[6] = Avn in mixture DragoCalm SP (glycerin/water)
[7] = single Avn in aqueous ethanolic solution (0.01 wt %)

SMILES: O=C(C=Cc1ccc(O)cc1)Nc1ccc(O)cc1C(=O)O [Avn A, N-(4′-hydroxycinnamoyl)-5-hydroxyanthranilic acid]
- RQ value, BLVRB (BLVRB): no effect
- RQ value, HSPB2 (=HSP27) (HSPB2 (=HSP27)): 1.9
- Mean antioxidant activity (inhibition of radical formation) ([1]; 5 μM): 40 ± 4%
- Mean antioxidant activity (inhibition of radical formation) ([1]; 10 μM): 76 ± 4%
- inhibition at 0.1 ppm (tachykinin NK1 receptor; test concentration 0.1 ppm): 3%
- inhibition at 1 ppm (tachykinin NK1 receptor; test concentration 1 ppm): 8%
- inhibition at 10 ppm (tachykinin NK1 receptor; test concentration 10 ppm): 14%
- inhibition at 100 ppm (tachykinin NK1 receptor; test concentration 100 ppm): 21%
- inhibition at 125 ppm (tachykinin NK1 receptor): 9%
- RQ value, CD44 (CD44): no effect
- Content after treatment [2, 6]: 34 ppm
- Degradation in % [2, 6]: 3%
- Degradation in % ([2]; Avn in mixture DragoCalm SP (glycerin/water), listed as Avenanthramide A): stable
- Content before treatment [2, 6]: 35 ppm
- Content after treatment [2, 7]: 104 ppm
- Degradation in % [2, 7]: 0%
- Content before treatment [2, 7]: 104 ppm
- ΔE (colour difference, CIELAB) [2, 7]: 0.2
- inhibition at 500 µM [3]: 14 ± 6%
- Content after 2 weeks at 40° C. [4]: 50 ppm
- Content after 4 weeks at 40° C. [4]: 50 ppm
- Content before treatment [4]: 50 ppm

SMILES: O=C(/C=C/C=C/c1ccc(O)cc1)Nc1ccc(O)cc1C(=O)O [Avn L, 5-hydroxy-2-[(2E,4E)-5-(4-hydroxyphenyl)penta-2,4-dienamido]benzoic acid]
- RQ value, BLVRB (BLVRB; listed as avenanthramide L): upregulates
- RQ value, HPRT1 (housekeeping) (HPRT1 (housekeeping); nHEK (Example 4 gene array)): 1.0
- RQ value, HPRT1 (housekeeping) (HPRT1 (housekeeping); nHEK, vs DMSO vehicle (Example 3)): 1.0
- Mean antioxidant activity (inhibition of radical formation) ([1]; 5 μM): 40 ± 4%
- Mean antioxidant activity (inhibition of radical formation) ([1]; 5 μM, listed as Avenanthramide L): at least 40%
- Mean antioxidant activity (inhibition of radical formation) ([1]; 10 μM): 74 ± 4%
- Mean antioxidant activity (inhibition of radical formation) ([1]; 10 μM, listed as avenanthramide L): at least 70%
- RQ value, CRYAB (CRYAB): 2.1 and 1.6
- RQ value, CRYAB (CRYAB; listed as avenanthramide L): upregulates
- Degradation in % [5]: 13%
- Degradation in % ([5]; 0.01 wt %): 3%
- RQ value, HSP90AA1 (HSP90AA1): 0.9
- RQ value, HSP90AA1 (HSP90AA1; listed as avenanthramide L): no effect
- inhibition at 0.1 ppm (tachykinin NK1 receptor; test concentration 0.1 ppm): 9%
- inhibition at 1 ppm (tachykinin NK1 receptor; test concentration 1 ppm): 15%
- inhibition at 10 ppm (tachykinin NK1 receptor; test concentration 10 ppm): 20%
- inhibition at 100 ppm (tachykinin NK1 receptor; test concentration 100 ppm): 42%
- inhibition at 125 ppm (tachykinin NK1 receptor): 37%
- RQ value, CD44 (CD44; listed as avenanthramide L): upregulates
- Content after treatment [2, 6]: 7 ppm
- Content before treatment [2, 6]: 8 ppm
- Content after treatment [2, 7]: 100 ppm
- Content before treatment [2, 7]: 103 ppm
- ΔE (colour difference, CIELAB) [2, 7]: 0.6
- Inhibition of oxidation ([3]; 500 μM): higher antioxidant activity than avenanthramide A
- inhibition at 500 µM [3]: 49 ± 7%
- RQ value, HSP90AB1 (HSP90AB1): 0.4 and 0.5
- RQ value, HSP90AB1 (HSP90AB1; listed as avenanthramide L): no effect
- Content after 2 weeks at 40° C. [4]: 11 ppm
- Content after 4 weeks at 40° C. [4]: 10 ppm
- Content before treatment [4]: 11 ppm
- Degradation in % ([4]; after 4 weeks at 40° C.): 9%

SMILES: O=C(CCc1ccc(O)cc1)Nc1ccccc1C(=O)O [Dihydroavenanthramide D, dihydroavenanthramide D]
- Percent inhibition of specific binding to the tachykinin NK1 receptor (tachykinin NK1 receptor; test concentration 0.1 ppm): 8%
- Percent inhibition of specific binding to the tachykinin NK1 receptor (tachykinin NK1 receptor; test concentration 1 ppm): 6%
- Percent inhibition of specific binding to the tachykinin NK1 receptor (tachykinin NK1 receptor; test concentration 10 ppm): 8%
- Percent inhibition of specific binding to the tachykinin NK1 receptor (tachykinin NK1 receptor; test concentration 100 ppm): 19%

SMILES: O=C(C=Cc1ccc(O)c(O)c1)Nc1ccc(O)cc1C(=O)O [Avn C, N-(3′-4′-dihydroxycinnamoyl)-5-hydroxyanthranilic acid]
- Percent inhibition of specific binding to the tachykinin NK1 receptor (tachykinin NK1 receptor; test concentration 0.1 ppm): 9%
- Percent inhibition of specific binding to the tachykinin NK1 receptor (tachykinin NK1 receptor; test concentration 1 ppm): 15%
- Percent inhibition of specific binding to the tachykinin NK1 receptor (tachykinin NK1 receptor; test concentration 10 ppm): 27%
- Percent inhibition of specific binding to the tachykinin NK1 receptor (tachykinin NK1 receptor; test concentration 100 ppm): 94%
- Content after treatment [2, 6]: <1 ppm
- Degradation in % [2, 6]: 100%
- Degradation in % ([2]; Avn in mixture DragoCalm SP (glycerin/water), listed as Avenanthramide C): completely degraded
- Content before treatment [2, 6]: 10 ppm
- Content after treatment [2, 7]: 89 ppm
- Degradation in % [2, 7]: 15%
- Content before treatment [2, 7]: 105 ppm
- ΔE (colour difference, CIELAB) [2, 7]: 2.3
- Content after 2 weeks at 40° C. [4]: 16 ppm
- Content after 4 weeks at 40° C. [4]: 10 ppm
- Content before treatment [4]: 20 ppm
- Degradation in % ([4]; after 2 weeks at 40° C.): 20%
- Degradation in % ([4]; after 4 weeks at 40° C.): 50%
